Data from patent publication US20100286038A1, “FORMULATION CONTAINING CYCLIN-DEPENDENT KINASE INHIBITING COMPOUND AND METHOD OF TREATING TUMORS USING THE SAME” (priority 2007, published 2010).
Like-named read-outs stand apart in the source and are kept apart here.

Procedure: The contents of the IV bag were infused over a two hour period. […] Each patient was dosed on a 28 day cycle, comprising an infusion once a week for the first three weeks of the cycle on days 1, 8, and 15 of each cycle, with no dose administered in the week following the third dose.
[1] = Table V, 2 hour IV infusion, 0.66 mg/M^2
[2] = Table V, 2 hour IV infusion, 1.85 mg/M^2
[3] = Table V, 2 hour IV infusion, 2.59 mg/M^2
[4] = Table V, 2 hour IV infusion, 3.63 mg/M^2
[5] = Table V, 2 hour IV infusion, 3.7 mg/M^2
[6] = Table V, 2 hour IV infusion, 7.4 mg/M^2
[7] = Table V, 2 hour IV infusion, 14.8 mg/M^2
[8] = Table V, 2 hour IV infusion, 29.6 mg/M^2
[9] = Table V, 2 hour IV infusion, 41.4 mg/M^2
[10] = Table V, 2 hour IV infusion, […]^2
[11] = Table VI, 2 hour IV infusion, 1.85 mg/m^2, N 1
[12] = Table VI, 2 hour IV infusion, 3.7 mg/m^2, N 1
[13] = Table VI, 2 hour IV infusion, 7.4 mg/m^2, N 1
[14] = Table VI, 2 hour IV infusion, 14.8 mg/m^2, N 1
[15] = Table VI, 2 hour IV infusion, 29.6 mg/m^2, N 6
[16] = Table VI, 2 hour IV infusion, 41.4 mg/m^2, N 6
[17] = Table VI, 2 hour IV infusion, 50 mg/m^2, N 10
[18] = Table VI, 2 hour IV infusion, 58 mg/m^2, N 3
[19] = Table VII, 2 hour IV infusion, 1.85 mg/m^2, N 1
[20] = Table VII, 2 hour IV infusion, 3.7 mg/m^2, N 1
[21] = Table VII, 2 hour IV infusion, 7.4 mg/m^2, N 1
[22] = Table VII, 2 hour IV infusion, 14.8 mg/m^2, N 1
[23] = Table VII, 2 hour IV infusion, 29.6 mg/m^2, N 5
[24] = Table VII, 2 hour IV infusion, 41.4 mg/m^2, N 6
[25] = Table VII, 2 hour IV infusion, 50 mg/m^2, N 10
[26] = Table VII, 2 hour IV infusion, 58 mg/m^2, N 3
[27] = Table VIII cumulative data, Day 1, 2-hour IV infusion, 0.66 mg/m^2, N 1
[28] = Table VIII cumulative data, Day 1, 2-hour IV infusion, 1.32 mg/m^2, N 1
[29] = Table VIII cumulative data, Day 1, 2-hour IV infusion, 1.85 mg/m^2, N 5
[30] = Table VIII cumulative data, Day 1, 2-hour IV infusion, 1.85 mg/m^2, N = 4
[31] = Table VIII cumulative data, Day 1, 2-hour IV infusion, 2.59 mg/m^2, N 3
[32] = Table VIII cumulative data, Day 1, 2-hour IV infusion, 2.59 mg/m^2, N = 2
[33] = Table VIII cumulative data, Day 1, 2-hour IV infusion, 3.63 mg/m^2, N 7
[34] = Table VIII cumulative data, Day 1, 2-hour IV infusion, 3.63 mg/m^2, N = 6
[35] = Table VIII cumulative data, Day 1, 2-hour IV infusion, 3.7 mg/m^2, N 1
[36] = Table VIII cumulative data, Day 1, 2-hour IV infusion, 5.08 mg/m^2, N 3
[37] = Table VIII cumulative data, Day 1, 2-hour IV infusion, 7.11 mg/m^2, N 1
[38] = Table VIII cumulative data, Day 1, 2-hour IV infusion, 7.4 mg/m^2, N 1
[39] = Table VIII cumulative data, Day 1, 2-hour IV infusion, 14.8 mg/m^2, N 1
[40] = Table VIII cumulative data, Day 1, 2-hour IV infusion, 29.6 mg/m^2, N 6
[41] = Table VIII cumulative data, Day 1, 2-hour IV infusion, 29.6 mg/m^2, N = 5
[42] = Table VIII cumulative data, Day 1, 2-hour IV infusion, 41.4 mg/m^2, N 6
[43] = Table VIII cumulative data, Day 1, 2-hour IV infusion, 50 mg/m^2, N 10
[44] = Table VIII cumulative data, Day 1, 2-hour IV infusion, 58 mg/m^2, N 3
[45] = Table VIII cumulative data, Day 1, 2-hour IV infusion, […]^2, N 1

SMILES: CCc1cnn2c(NCc3ccc[n+]([O-])c3)cc(N3CCCC[C@H]3CCO)nc12 [Formula II]
- drug accumulation (1.85 mg/m^2 on days 1, 8, 15 of 28 day cycle): drug accumulation is not evident
- dosage at which plasma levels of 25 nM (10 ng/mL) are available (2-hour infusions): greater than 1.32 mg/m^2
- AUC [1]: 32.1 ng·h/mL
- CL [1]: 20.6 L/(hr m^2)
- Cmax [1]: 18.6 ng/mL
- t1/2 [1]: 1.48 h
- Cmax (Table V, 2 hour IV infusion, 1.32 mg/M^2): 63.8 ng/mL
- AUC [2]: 201.2 (38) ng hr/mL
- CL [2]: 10.2 (36) L/(hr m^2)
- Cmax [2]: 95.7 (26) ng/mL
- t1/2 [2]: 2.29 (45) hours
- AUC [3]: 213 (35) ng hr/mL
- CL [3]: 12.9 (35) L/(hr m^2)
- t1/2 [3]: 3.0 (1) hours
- AUC [4]: 423 (91) ng hr/mL
- CL [4]: 14.7 (91) L/(hr m^2)
- Cmax [4]: 163 (63) ng/mL
- t1/2 [4]: 2.56 (38) hours
- AUC [5]: 336 ng·h/mL
- CL [5]: 11.0 L/(hr m^2)
- Cmax [5]: 136 ng/mL
- t1/2 [5]: 2.75 h
- AUC [6]: 972 ng·h/mL
- CL [6]: 7.62 L/(hr m^2)
- Cmax [6]: 353 ng/mL
- t1/2 [6]: 2.86 h
- AUC [7]: 1053 ng·h/mL
- CL [7]: 14.1 L/(hr m^2)
- Cmax [7]: 396 ng/mL
- t1/2 [7]: 2.78 h
- AUC [8]: 2434 (45) ng hr/mL
- CL [8]: 14.0 (40) L/(hr m^2)
- Cmax [8]: 890 (44) ng/mL
- t1/2 [8]: 2.98 (11) hours
- AUC [9]: 3041 (51) ng hr/mL
- Cmax [9]: 1343 (48) ng/mL
- t1/2 [9]: 2.80 (29) hours
- CL [10]: 13.1 L/(hr m^2)
- t1/2 [10]: 2.01 h
- AUC(tf) Mean [11]: 134 ng·h/mL
- Cmax Mean [11]: 62.5 ng/mL
- Tmax Median [11]: 1 h
- tf Median [11]: 8 h
- AUC(tf) Mean [12]: 336 ng·h/mL
- Cmax Mean [12]: 136 ng/mL
- Tmax Median [12]: 2 h
- tf Median [12]: 24 h
- AUC(tf) Mean [13]: 970 ng·h/mL
- Cmax Mean [13]: 353 ng/mL
- Tmax Median [13]: 2 h
- tf Median [13]: 24 h
- AUC(tf) Mean [14]: 1050 ng·h/mL
- Cmax Mean [14]: 396 ng/mL
- Tmax Median [14]: 2 h
- tf Median [14]: 24 h
- AUC(tf) Mean [15]: 2040 ng·h/mL
- Cmax Mean [15]: 890 ng/mL
- Tmax Median [15]: 1 h
- tf Median [15]: 24 h
- AUC(tf) Mean [16]: 2870 ng·h/mL
- Cmax Mean [16]: 1300 ng/mL
- Tmax Median [16]: 2 h
- tf Median [16]: 24 h
- AUC(tf) Mean [17]: 4050 ng·h/mL
- Cmax Mean [17]: 1820 ng/mL
- Tmax Median [17]: 1.5 h
- tf Median [17]: 24 h
- AUC(tf) Mean [18]: 3290 ng·h/mL
- Cmax Mean [18]: 1460 ng/mL
- Tmax Median [18]: 1 h
- tf Median [18]: 24 h
- AUC(I) Mean [19]: 136 ng·h/mL
- CL Mean [19]: 13.6 L/hr/m^2
- t½ Mean [19]: 1.42 h
- AUC(I) Mean [20]: 336 ng·h/mL
- CL Mean [20]: 11.0 L/hr/m^2
- t½ Mean [20]: 2.75 h
- AUC(I) Mean [21]: 972 ng·h/mL
- CL Mean [21]: 7.62 L/hr/m^2
- t½ Mean [21]: 2.86 h
- AUC(I) Mean [22]: 1050 ng·h/mL
- CL Mean [22]: 14.1 L/hr/m^2
- t½ Mean [22]: 2.78 h
- AUC(I) Mean [23]: 2430 ng·h/mL
- CL Mean [23]: 14.0 L/hr/m^2
- t½ Mean (Table VII, 2 hour IV infusion, 29.6 mg/m^2, n = 4): 2.98 h
- AUC(I) Mean [24]: 2890 ng·h/mL
- CL Mean [24]: 26.8 L/hr/m^2
- t½ Mean [24]: 2.84 h
- AUC(I) Mean [25]: 4090 ng·h/mL
- CL Mean [25]: 16.3 L/hr/m^2
- t½ Mean [25]: 2.90 h
- AUC(I) Mean [26]: 3300 ng·h/mL
- CL Mean [26]: 19.7 L/hr/m^2
- t½ Mean [26]: 3.15 h
- AUC(I) Mean [27]: 32.1 ng·h/mL
- CL Mean [27]: 20.6 L/hr/m^2
- Cmax Mean [27]: 18.6 ng/mL
- Tmax Median [27]: 2 h
- t½ Mean [27]: 1.48 h
- Cmax Mean [28]: 63.8 ng/mL
- Tmax Median [28]: 2 h
- Cmax Mean [29]: 91.0 ng/mL
- Tmax Median [29]: 2 h
- AUC(I) Mean [30]: 201 ng·h/mL
- CL Mean [30]: 10.2 L/hr/m^2
- t½ Mean [30]: 2.29 h
- Cmax Mean [31]: 124 ng/mL
- Tmax Median [31]: 1 h
- AUC(I) Mean [32]: 213 ng·h/mL
- CL Mean [32]: 12.9 L/hr/m^2
- t½ Mean [32]: 3.02 h
- Cmax Mean [33]: 195 ng/mL
- Tmax Median [33]: 1 h
- AUC(I) Mean [34]: 446 ng·h/mL
- CL Mean [34]: 11.3 L/hr/m^2
- t½ Mean [34]: 2.63 h
- AUC(I) Mean [35]: 336 ng·h/mL
- CL Mean [35]: 11.0 L/hr/m^2
- Cmax Mean [35]: 136 ng/mL
- Tmax Median [35]: 2 h
- t½ Mean [35]: 2.75 h
- AUC(I) Mean [36]: 327 ng·h/mL
- CL Mean [36]: 15.9 L/hr/m^2
- Cmax Mean [36]: 173 ng/mL
- Tmax Median [36]: 2 h
- t½ Mean [36]: 3.19 h
- AUC(I) Mean [37]: 588 ng·h/mL
- CL Mean [37]: 12.1 L/hr/m^2
- Cmax Mean [37]: 347 ng/mL
- Tmax Median [37]: 1 h
- t½ Mean [37]: 3.16 h
- AUC(I) Mean [38]: 972 ng·h/mL
- CL Mean [38]: 7.62 L/hr/m^2
- Cmax Mean [38]: 353 ng/mL
- Tmax Median [38]: 2 h
- t½ Mean [38]: 2.86 h
- AUC(I) Mean [39]: 1050 ng·h/mL
- CL Mean [39]: 14.1 L/hr/m^2
- Cmax Mean [39]: 396 ng/mL
- Tmax Median [39]: 2 h
- t½ Mean [39]: 2.78 h
- Cmax Mean [40]: 890 ng/mL
- Tmax Median [40]: 1 h
- AUC(I) Mean [41]: 2430 ng·h/mL
- CL Mean [41]: 14.0 L/hr/m^2
- t½ Mean [41]: 2.98 h
- AUC(I) Mean [42]: 2890 ng·h/mL
- CL Mean [42]: 26.8 L/hr/m^2
- Cmax Mean [42]: 1300 ng/mL
- Tmax Median [42]: 2 h
- t½ Mean [42]: 2.84 h
- AUC(I) Mean [43]: 4090 ng·h/mL
- CL Mean [43]: 16.3 L/hr/m^2
- Cmax Mean [43]: 1820 ng/mL
- Tmax Median [43]: 1.5 h
- t½ Mean [43]: 2.90 h
- AUC(I) Mean [44]: 3300 ng·h/mL
- CL Mean [44]: 19.7 L/hr/m^2
- Cmax Mean [44]: 1460 ng/mL
- Tmax Median [44]: 1 h
- t½ Mean [44]: 3.15 h
- CL Mean [45]: 13.1 L/hr/m^2
- Tmax Median [45]: 1 h
- t½ Mean [45]: 2.01 h
- clearance versus dose (dosages of from […]^2 to 41.4 mg/m^2): clearance is dosage independent
- exposure (AUC) versus dose (dosages of from […]^2 to 41.4 mg/m^2, day 1 and day 15): dose-proportional increases in exposure
- AUC (two hour infusion, 3.7 mg/M^2): about 336 ng hr/mL
- Cmax (two hour infusion, 3.7 mg/M^2): about 136 ng/ml
- t1/2 (two hour infusion, 3.7 mg/M^2): about 2.75 hours
- Cmax (two hour infusion, 7.4 mg/M^2): about 353 ng/ml
- t1/2 (two hour infusion, 7.4 mg/M^2): about 2.86 hours
- Cmax (two hour infusion, 14.8 mg/M^2): about 396 ng/ml
- t1/2 (two hour infusion, 14.8 mg/M^2): about 2.78 hours
- t1/2 (two hour infusion, 41.4 mg/M^2): about 2.8 hours
- Cmax (two hour infusion, 50 mg/M^2): about 1820 ng/ml
- t1/2 (two hour infusion, 50 mg/M^2): about 2.9 hours
- Cmax (two hour infusion, 58 mg/M^2): about 1460 ng/ml
- t1/2 (two hour infusion, 58 mg/M^2): about 3.2 hours
